# In US7662593B2, “Activation method of protein derived from extremely thermophilic bacterium in nucleic acid amplification reaction and use thereof” (Aisin Seiki Kabushiki Kaisha, priority 2004, dated 2010):
# Columns and labels:
# Assay type in all cases: biochemical
# T. th. RecA [1] = biological target: T1, T. th. RecA (Thermus thermophilus, UniProt Q5SHB2); assay: PCR with rTaq-HS polymerase with various nucleotide 5'-triphosphates and T. th. RecA (Example 4); settings: 36 cycles; for non-specific amplification in PCR (agarose gel): rTaq buffer
# T1 construct: made in house
# T1 sequence (Q5SHB2 1-340): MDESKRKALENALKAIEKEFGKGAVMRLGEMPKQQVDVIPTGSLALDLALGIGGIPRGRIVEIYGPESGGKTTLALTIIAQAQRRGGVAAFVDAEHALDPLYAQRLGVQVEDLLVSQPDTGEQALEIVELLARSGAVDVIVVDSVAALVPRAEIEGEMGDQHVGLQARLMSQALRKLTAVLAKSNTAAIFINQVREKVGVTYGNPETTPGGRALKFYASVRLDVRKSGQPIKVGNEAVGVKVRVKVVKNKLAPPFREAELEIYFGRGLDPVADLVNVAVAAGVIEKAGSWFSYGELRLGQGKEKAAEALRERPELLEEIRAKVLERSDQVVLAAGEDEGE
# Protocol: The PCR amplification reaction was carried out using a human genome DNA as a template and Primer Set 1. Seven kinds of PCR reaction solution were prepared as shown below. Specifically, Reaction solution I was a general PCR reaction solution and prepared without adding any of T. th. RecA and nucleotide 5′-triphosphate (Control). Reaction solution J was prepared by adding T. th. RecA to Reaction solution I. Reaction solutions K, L, M and N were prepared by adding GTP, ATP, UTP and CTP to Reaction solution J, respectively. Reaction solution O was prepared by adding only ATP to Reaction solution I without adding T. th. RecA. The composition of each of the reaction solutions is as shown below. As a DNA polymerase, an rTaq-HS polymerase was used.
# (§1) The above reaction solutions were thermally denatured at 94° C. for 30 seconds. Thereafter, the amplification reaction was carried out with 36 cycles (1 cycle: at 94° C. for 15 seconds, at 55° C. for 30 seconds and at 72° C. for 90 seconds). Thereafter, the amplification reaction was completed by the final reaction cycle at 72° C. for 3 minutes and at 4° C. for 10 minutes. After the amplification, 10 μl of the reaction solution was subjected to electrophoresis with 1.2% agarose gel. After the electrophoresis, the bands were visualized by staining the gel with ethidium bromide, and then the electrophoresis gel was photographed. Furthermore, the same experiment was conducted using Primer Sets 2, 3, 4, 5, 6 and 8.
# T. th. RecA [2] = biological target: T1, T. th. RecA; assay: PCR with Ex Taq-HS polymerase with T. th. RecA and ATP (Example 3); settings: 400 μM ATP plus 0.4 μg T. th. RecA, 36 cycles, Primer Sets 1-6 and 8, compared with no addition
# Protocol: The PCR amplification reaction was carried out using a human genome DNA as a template and Primer Set 1. Two kinds of PCR reaction solutions were prepared as shown below. Specifically, Reaction solution G was prepared with a composition of a general PCR reaction solution without adding any of T. th. RecA and ATP (Control). Reaction solution H was prepared by adding T. th. RecA and ATP further to Reaction solution G. The composition of each of the reaction solutions is as shown below. As a DNA polymerase, an Ex Taq-HS polymerase was used.
# as §1
# T. th. RecA [3] = biological target: T1, T. th. RecA; assay: PCR with rTaq-HS polymerase over 28, 32 or 36 cycles: decrease in T. th. RecA performance, with and without ATP (Example 2); settings: 400 μM ATP plus 0.4 μg T. th. RecA, Taq buffer, 28, 32 or 36 cycles, Primer Sets 7-9; compared with T. th. RecA only
# Protocol: The PCR amplification reaction was carried out using a human genome DNA as a template and Primer Set 7. Two kinds of PCR reaction solution were prepared as shown below. Specifically, Reaction solution E was prepared by adding T. th. RecA only. Reaction solution F was prepared by adding ATP in addition to T. th. RecA. The composition of each of the reaction solutions is as shown below. As a DNA polymerase, an rTaq-HS polymerase was used.
# as §1, with “conducted in 28, 32 or” for “carried out with”, “seconds). And” for “seconds).”, “8” for “2, 3, 4, 5, 6”, “9.” for “8.”
# T. th. RecA [4] = biological target: T1, T. th. RecA; assay: PCR with T. th. DNA polymerase, combination of T. th. RecA with ATP (Example 7); settings: 35 cycles
# Protocol: PCR amplification by the T. th. DNA polymerase was carried out using a human genome DNA as a template and Primer Set 1. Five kinds of PCR reaction solution were prepared as shown below. Specifically, Reaction solution R was prepared by adding T. th. RecA and ATP. Reaction solution S was prepared similarly to Reaction solution R except that ATP was not added. Reaction solution T was prepared similarly to Reaction solution R except that ATP and T. th. […] Reaction solution U was prepared similarly to Reaction solution R except that T. th. RecA and ATP were not added but a T. th. RecA storage buffer was added instead. Further, Reaction solution V was prepared similarly to Reaction solution R except that T. th. RecA was not added. The composition of each of the reaction solutions is as shown below.
# (§2) The above reaction solutions were thermally denatured at 92° C. for 30 seconds. Then, amplification reaction was carried out with 35 cycles (1 cycle: at 94° C. for 15 seconds, at 55° C. for 30 seconds and at 68° C. for 90 seconds). Thereafter, the amplification reaction was completed by the final reaction cycle at 68° C. for 3 minutes and at 4° C. for 10 minutes. After the amplification, 10 μl of the reaction solution was subjected to electrophoresis with 1.2% agarose gel. […]
# T. th. RecA [5] = biological target: T1, T. th. RecA; assay: PCR with ExTaq-HS polymerase, effects of primer length, Primer Sets 10-15 (Example 5); settings: 0.4 mM ATP plus 0.4 μg T. th. RecA, 35 cycles, primer base length 20 to 45 (Primer Sets 10-15)
# Protocol: The PCR amplification reaction was carried out using a human genome DNA as a template and the primer sets of various lengths. The primer sets used here were Primer Sets 10, 11, 12, 13, 14 and 15 with the base length of 20, 25, 30, 35, 40 and 45, respectively. Two kinds of PCR reaction solution were prepared as shown below. Specifically, Reaction solution P was prepared by adding T. th. RecA and ATP. Reaction solution Q was prepared similarly to Reaction solution P except that ATP was not added. The composition of each of the reaction solutions is as shown below. As a DNA polymerase, an ExTaq-HS polymerase (manufactured by Takara Bio Inc.) was used.
# as §1, with “35” for “36”, “photographed.” for “photographed. Furthermore, the same experiment was conducted using Primer Sets 2, 3, 4, 5, 6 and 8.”
# T. th. RecA [6] = biological target: T1, T. th. RecA; assay: PCR and multiplex PCR with T. th. DNA polymerase, T. th. RecA and ATP (Example 8); settings: 0.4 mM ATP plus 0.4 μg T. th. RecA
# Protocol: The PCR amplification reaction by the T. th. DNA polymerase was carried out using a human genome DNA as a template. The primer sets used herein were Primer Sets 22, 23, 24, 25, 26, 27, 28, 29, 30, 31, 32, 33, 1 and 2. In addition, multiplex PCR was carried out in which these primer sets were added in one reaction system and amplified. Two kinds of PCR reaction solution were prepared as shown below. Specifically, Reaction solution W was prepared by adding T. th. RecA and ATP. Reaction solution X was prepared similarly to Reaction solution W except that T. th. RecA and ATP were not added but a T. th. RecA storage buffer was added instead.
# The above reaction solutions were thermally denatured at 92° C. for 30 seconds. Thereafter, the amplification reaction was carried out with 35 cycles (1 cycle: at 94° C. for 15 seconds, at 55° C. for 30 seconds and at 68° C. for 2 minutes). Thereafter, the amplification reaction was completed by the final reaction cycle at 68° C. for 3 minutes and at 4° C. for 10 minutes. After the amplification, 3 μl of the reaction solution was subjected to electrophoresis with 12.5% acrylamide gel. After the electrophoresis, the bands were visualized by staining the gel with cyber green, and then the electrophoresis gel was photographed.
# T. th. RecA [7] = biological target: T1, T. th. RecA; assay: PCR with ExTaq-HS polymerase, effects of primer length, Primer Sets 16-21 (Example 6); settings: 0.4 mM ATP plus 0.4 μg T. th. RecA, primer base length 20 to 45 (Primer Sets 16-21)
# Protocol: The PCR amplification reaction was carried out using a human genome DNA as a template and the primer sets of various lengths. The primer sets used here were Primer Sets 16, 17, 18, 19, 20 and 21 with the base lengths of 20, 25, 30, 35, 40 and 45. The same PCR reaction solutions as in Example 5 were used. Specifically, Reaction solution P was prepared by adding T. th. RecA and ATP. Reaction solution Q was prepared similarly to Reaction solution P except that ATP was not added. As a DNA polymerase, an ExTaq-HS polymerase (manufactured by Takara Bio Inc.) was used. Then, the PCR reaction was carried out under the same conditions as in Example 5, then electrophoresis and staining of the electrophoresed gel were conducted, and then photographing was conducted according to the same procedures as in Example 5.
# T. th. RecA [8] = biological target: T1, T. th. RecA; assay: PCR with rTaq-HS polymerase: influence of reaction solution composition on T. th. RecA performance, with and without ATP (Example 1); settings: 400 μM ATP plus 0.4 μg T. th. RecA, rTaq buffer, 35 cycles, human genome DNA, Primer Sets 1-6; compared with T. th. RecA only
# Protocol: The PCR amplification reaction was carried out using a human genome DNA as a template and Primer Set 1. Four kinds of PCR reaction solution were prepared as shown below. Specifically, Reaction solution A was prepared by using 1×rTaq buffer (manufactured by Takara Bio Inc.) as a buffer solution, and Reaction solution B was prepared by adding T. th. RecA further to Reaction solution A. Reaction solution C was prepared by using Taq buffer (manufactured by Takara Bio Inc.) as a buffer solution and adding T. th. RecA. Reaction solution D was prepared by adding T. th. RecA and ATP further to Reaction solution A. The composition of each of the reaction solutions is as shown below. As a DNA polymerase, an rTaq-HS polymerase (manufactured by Takara Bio Inc.) was used.
# as §2, with “94°” for “92°”, “Thereafter, the” for “Then,”, “72°” for “68°”, “gel. After the electrophoresis, the bands were visualized by staining the gel with ethidium bromide, and then the electrophoresis gel was photographed.” for “gel.”
structure (smiles),measurement,setting,value
"Nc1ncnc2c1ncn2[C@@H]1O[C@H](COP(=O)(O)OP(=O)(O)OP(=O)(O)O)[C@@H](O)[C@H]1O [ATP, adenosine 5′-triphosphate]",non-specific amplification in PCR (agarose gel),"T. th. RecA [1]; 400 μM ATP alone, without T. th. RecA, Lanes 43 to 49",non-specific amplification was not suppressed
same,"suppression of non-specific amplification, comparison among the NTP and T. th. RecA combinations","T. th. RecA [1]; 400 μM GTP, ATP, UTP or CTP plus 0.4 μg T. th. RecA",suppressed non-specific amplification the most
same,non-specific amplification in PCR (agarose gel),"T. th. RecA [1]; 400 μM NTP plus 0.4 μg T. th. RecA, Primer Sets 1-6 and 8, compared with T. th. RecA only",non-specific amplification can be suppressed
same,non-specific amplification in PCR (agarose gel),T. th. RecA [2],non-specific amplification was suppressed
same,non-specific amplification in PCR (agarose gel),T. th. RecA [3],non-specific amplification can be suppressed
same,non-specific amplification in PCR (agarose gel),"T. th. RecA [4]; 0.4 mM ATP only, without T. th. RecA",production of non-specific amplification products was found
same,non-specific amplification in PCR (agarose gel),"T. th. RecA [4]; 0.4 mM ATP plus 0.4 μg T. th. RecA, Primer Sets 1-6 and 8",non-specific amplification was remarkably suppressed
same,non-specific amplification in PCR (agarose gel),T. th. RecA [5],non-specific amplification can be remarkably reduced
same,non-specific amplification in PCR (acrylamide gel),"T. th. RecA [6]; 35 cycles, single primer sets 22-33, 1 and 2 (Lanes 1 to 14)",non-specific amplification was remarkably suppressed
same,specific amplification in multiplex PCR (acrylamide gel),T. th. RecA [6]; all 14 primer sets in one reaction system (Lane 15),the target sequences corresponding to each of the primer sets were specifically amplified
same,non-specific amplification in PCR (agarose gel),T. th. RecA [7],non-specific amplification was remarkably suppressed
same,non-specific amplification in PCR (agarose gel),T. th. RecA [8],non-specific amplification can be remarkably reduced
